Data published in patent US20260015339A1, “CALIX[4]ARENES WITH HIGH ANTICANCER ACTIVITY” (UNIVERSITE GRENOBLE ALPES, priority 2023, published 2026).

Key:
Test in all cases: PROLiFiler-Cell Panel Screening (CellTiterGlo)
Assay type in all cases: cell-based
COR-L279 = conditions: Homo sapiens; Lung, COR-L279, 72 hours
Experimental: (§1) For the assays, cells were seeded in white cell culture-treated flat and clear bottom 384-well multiwall plates and incubated at 37° C. overnight before the calix[4]arene of the formula (2) or the reference compound were added. After incubation for 72 hours at 37° C. at 5% or 10% CO2 depending on the medium, cell plates were equilibrated to room temperature (i.e. 20° C.) for one hour, CellTiterGlo® reagent from the firm Promega was added and luminescence was measured approximately an hour later using a luminometer.
(§2) Raw data were converted into percent cell viability relative to the high and low control, which were set to 100% and 0%, respectively.

Hep3B2.1-7 = conditions: Liver, Hep3B2.1-7, 72 hours
Experimental: as §1, §2

H4 = conditions: Brain, H4, 72 hours
Experimental: as §1, §2

EFO-27 = conditions: Homo sapiens; Ovary, EFO-27, 72 hours
Experimental: as §1, §2

JIMT-1 = conditions: Homo sapiens; Breast, JIMT-1, 72 hours
Experimental: as §1, §2

MDA MB 435 = conditions: Homo sapiens; Skin, MDA MB 435, 72 hours
Experimental: as §1, §2

LOU-NH91 = conditions: Lung, LOU-NH91, 72 hours
Experimental: as §1, §2

MDA-MB-468 = conditions: Homo sapiens; Breast, MDA-MB-468, 72 hours
Experimental: as §1, §2

A375 = conditions: Homo sapiens, A-375; Skin, A375, 72 hours
Experimental: as §1, §2

Caki-1 = conditions: Homo sapiens; Kidney, Caki-1, 72 hours
Experimental: as §1, §2

T84 = conditions: Homo sapiens; Colon, T84, 72 hours
Experimental: as §1, §2

NCI-H1563 = conditions: Homo sapiens; Lung, NCI-H1563, 72 hours
Experimental: as §1, §2

MV4-11 = conditions: Homo sapiens; Blood, MV4-11, 72 hours
Experimental: as §1, §2

SW-1783 = conditions: Homo sapiens, SW1783; Brain, SW-1783, 72 hours
Experimental: as §1, §2

SNU-1 = conditions: Homo sapiens, SNU1; Stomach, SNU-1, 72 hours
Experimental: as §1, §2

MKN-1 = conditions: Homo sapiens; Stomach, MKN-1, 72 hours
Experimental: as §1, §2

HCC 1569 = conditions: Homo sapiens, HCC1569; Breast, HCC 1569, 72 hours
Experimental: as §1, §2

SiHa = conditions: Homo sapiens, Cervix, 72 hours
Experimental: as §1, §2

A172 = conditions: Homo sapiens, A 172; Brain, A172, 72 hours
Experimental: as §1, §2

NCI-H1573 = conditions: Homo sapiens; Lung, NCI-H1573, 72 hours
Experimental: as §1, §2

DV90 = conditions: Homo sapiens, DV-90; Lung, DV90, 72 hours
Experimental: as §1, §2

H1299 = conditions: Homo sapiens, NCI-H1299; Lung, H1299, 72 hours
Experimental: as §1, §2

KARPAS 299 = conditions: Homo sapiens; Blood, KARPAS 299, 72 hours
Experimental: as §1, §2

SW480 = conditions: Homo sapiens; Colon, SW480, 72 hours
Experimental: as §1, §2

SW620 = conditions: Homo sapiens, SW-620; Colon, SW620, 72 hours
Experimental: as §1, §2

SNU840 = conditions: SNU-840; Ovary, SNU840, 72 hours
Experimental: as §1, §2

SW948 = conditions: Homo sapiens; Colon, SW948, 72 hours
Experimental: as §1, §2

A498 = conditions: Homo sapiens; Kidney, A498, 72 hours
Experimental: as §1, §2

AsPC-1 = conditions: Homo sapiens, ASPC1; Pancreas, AsPC-1, 72 hours
Experimental: as §1, §2

H460 = conditions: Homo sapiens, NCI-H460; Lung, H460, 72 hours
Experimental: as §1, §2

HT-29 = conditions: Homo sapiens; Colon, HT-29, 72 hours
Experimental: as §1, §2

Colo 205 = conditions: Homo sapiens; Colon, Colo 205, 72 hours
Experimental: as §1, §2

HCC827 = conditions: Homo sapiens; Lung, HCC827, 72 hours
Experimental: as §1, §2

MOLM-13 = conditions: Homo sapiens; Blood, MOLM-13, 72 hours
Experimental: as §1, §2

U251MG = conditions: Homo sapiens, U-251, Brain, 72 hours
Experimental: as §1, §2

HT-1080 = conditions: Homo sapiens; Fibrosarcoma, HT-1080, 72 hours
Experimental: as §1, §2

| SMILES | IC50 (COR-L279) [nM] | IC50 (Hep3B2.1-7) [nM] | IC50 (H4) [nM] | IC50 (EFO-27) [nM] | IC50 (JIMT-1) [nM] | IC50 (MDA MB 435) [nM] | IC50 (LOU-NH91) [nM] | IC50 (MDA-MB-468) [nM] | IC50 (A375) [nM] | IC50 (Caki-1) [nM] | IC50 (T84) [nM] | IC50 (NCI-H1563) [nM] | IC50 (MV4-11) [nM] | IC50 (SW-1783) [nM] | IC50 (SNU-1) [nM] | IC50 (MKN-1) [nM] | IC50 (HCC 1569) [nM] | IC50 (SiHa) [nM] | IC50 (A172) [nM] | IC50 (NCI-H1573) [nM] | other results |
| --- | --- | --- | --- | --- | --- | --- | --- | --- | --- | --- | --- | --- | --- | --- | --- | --- | --- | --- | --- | --- | --- |
| CCCOc1c2cccc1Cc1cccc(c1OCc1nccn1C)Cc1cccc(c1OCCC)Cc1cccc(c1OCc1nccn1C)C2 [(2)] | 1510 | 781 | 2900 | 1520 | 2700 | 2770 | 652 | 741 | 1170 | 3240 | 2440 | 3440 | 671 | 3380 | 2550 | 2160 | 2960 | 1250 | 1210 | 2210 | IC50 (DV90): 2160 nM; IC50 (H1299): 1300 nM; IC50 (KARPAS 299): 1480 nM; IC50 (SW480): 1520 nM; IC50 (SW620): 1760 nM; IC50 (SNU840): 1150 nM; IC50 (SW948): 2150 nM; IC50 (A498): 1720 nM; IC50 (AsPC-1): 834 nM; IC50 (H460): 727 nM; IC50 (HT-29): 1200 nM; IC50 (Colo 205): 1810 nM; IC50 (HCC827): 1720 nM; IC50 (MOLM-13): 1710 nM; IC50 (U251MG): 3530 nM; IC50 (HT-1080): 1900 nM |
| CC(C)C[C@H](NC(=O)[C@H](Cc1ccccc1)NC(=O)c1cnccn1)B(O)O [bortezomib, reference compound] | 4.94 | 7.98 | 8.36 | 13.2 | 8.57 | 4.3 | 7.04 | 4.2 | 5.44 | 5.37 | 12.1 | 19.5 | 3.13 | 8.6 | 28.8 | 4.32 | 5.15 | 7.41 | 4.77 | 16.7 | IC50 (DV90): 7.37 nM; IC50 (H1299): 8.42 nM; IC50 (KARPAS 299): 3.96 nM; IC50 (SW480): 5.29 nM; IC50 (SW620): 4.74 nM; IC50 (SNU840): 5.89 nM; IC50 (SW948): 8.88 nM; IC50 (A498): 4.53 nM; IC50 (AsPC-1): 12.5 nM; IC50 (H460): 28.8 nM; IC50 (HT-29): 5.99 nM; IC50 (Colo 205): 6.79 nM; IC50 (HCC827): 8.4 nM; IC50 (MOLM-13): 3.91 nM; IC50 (U251MG): 9.16 nM; IC50 (HT-1080): 13.8 nM |
